{
  "source": "ChEMBL document CHEMBL1141270",
  "about": "“Withanolides from Jaborosa kurtzii” (2007)",
  "key": {"Lactuca sativa": {"system": "Lactuca sativa", "assay": "Phytotoxicity against Lactuca sativa assessed as inhibition in radicle length at 400 ppm", "type": "functional"}, "Avena sativa": {"system": "Avena sativa", "assay": "Phytotoxicity against Avena sativa assessed as inhibition of radicle length at 400 ppm", "type": "functional"}},
  "data": [
    {"smiles": "CC1=C(C)C(=O)O[C@]2(C1)O[C@@]1(O)CC3C(CC=C4CC=CC(=O)[C@@]43C)C3CC[C@@](O)([C@@H]2C)[C@]31C", "note": "(some centres not stated) [JABOROSALACTONE 43]", "values": [
      {"measurement": "inhibition at 400 ppm", "setting": "Lactuca sativa", "value": 32, "unit": "%"},
      {"measurement": "inhibition at 400 ppm", "setting": "Avena sativa", "value": 4, "unit": "%"}
    ]}
  ]
}
